# Values of other authors as cited in patent US9302007B2, “Low surfactant iodine topical disinfectant” (DELAVAL HOLDING AB, priority 2011, dated 2016).
# Conditions: room temperature
compound,measurement,value
II,solubility of iodine in water,about 300 ppm
